Results from patent US20080220066A1 (HENDERSON MORLEY PLC, priority 2005, published 2008).
Converted amounts (≈) assume the structure as drawn. Where two headings read alike, the source gives them in different places.

Key:
[1] = tested on: Herpes simplex virus (HSV); assay: HSV standard plaque inhibition assay; format: cell-based; details: for IC50: Herpes simplex virus; for ICVT activity: HSV plaque inhibition assay
Source text: Using Herpes simplex virus (HSV), 50% plaque inhibitory dose (1D50) were established using the standard plaque inhibition assay.

[2] = tested on: Adenovirus; assay: 50% plaque inhibitory concentration, Adenovirus; details: unidentified adenovirus, A549, read-out: Furosemide IC50
[3] = for Flux: Q24 divided by 24
[4] = tested on: feline herpesvirus
[5] = tested on: Herpes simplex virus (HSV); assay: HSV virus yield (infectious virus particle production); format: cell-based; details: for HSV yield: solvent as listed per compound, Torasemide at 90 μg/ml

SMILES: NS(=O)(=O)c1cc(C(=O)O)c(NCc2ccco2)cc1Cl [Furosemide, 5-(Aminosulfonyl)-4-chloro-2-[(2-furanylmethyl)amino]benzoic acid]
- IC50 ([1]; BHK-21, read-out: Furosemide IC50, host cell BHK21): 800 µg/mL (≈ 2420 µM)
- ICVT activity [1]: potent ICVT activity
- IC50 ([1]; read-out: Furosemide IC50, host cell Vero): 1000 µg/mL (≈ 3020 µM)
- IC50 [2]: 440 ± 114 µg/mL (≈ 1330 µM)
- maximum concentrations observed in the receptor phase ([3]; 40:40:20 gels): 543.60 µg/mL
- Release date ([3]; Ampule Formulation): 667 μg cm^−2 h^0.5
- Q24 ([3]; Ampule Formulation (8% HPC)): 2724 μg cm^−2
- Flux ([3]; Ampule Formulation): 111 μg cm^−2 h^−1
- % applied dose ([3]; Gel 1:1, pH 7): 17.9%
- Release Rate ([3]; Gel 1:1, pH 7): 7.18 μg cm^−2 h^0.5
- Flux ([3]; Gel 1:1, pH 7): 2.69 μg cm^−2 h^−1
- Q24 ([3]; Gel 1:1, prototype 40:40:20 mix, pH 7, 24 h): 64.63 μg cm^−2
- Q24 ([3]; Gel 14:1 (F:D), prototype 40:40:20 mix, […] 981NF, pH 5, 24 h): 543.60 μg cm^−2
- Flux ([3]; Gel 14:1, pH 5): 22.65 μg cm^−2 h^−1
- % applied dose ([3]; Gel 14:1, pH 5, assuming 2 g of gel in donor): 8.7%
- Release Rate ([3]; Gel 14:1, pH 5, gradient of square root of time plot): 124.51 μg cm^−2 h^0.5
- % applied dose ([3]; Gel 14:1, pH 7): 5.9%
- Release Rate ([3]; Gel 14:1, pH 7): 77.482 μg cm^−2 h^0.5
- Flux ([3]; Gel 14:1, pH 7): 15.24 μg cm^−2 h^−1
- % applied dose ([3]; Gel 14:1, pH 9): 3.7%
- Release Rate ([3]; Gel 14:1, pH 9): 43.389 μg cm^−2 h^0.5
- Flux ([3]; Gel 14:1, pH 9): 9.61 μg cm^−2 h^−1
- Q24 ([3]; Gel 14:1, prototype 40:40:20 mix, pH 7, 24 h): 365.65 μg cm^−2
- Q24 ([3]; Gel 14:1, prototype 40:40:20 mix, pH 9, 24 h): 230.69 μg cm^−2
- Release date ([3]; HPC Formulation): 2673 μg cm^−2 h^0.5
- Q24 ([3]; HPC Formulation (revised 50:40:10 gel, 8% HPC, pH 5, 14:1)): 9085 μg cm^−2
- Flux ([3]; HPC Formulation): 388 μg cm^−2 h^−1
- Release date ([3]; Ultrez Formulation): 1027 μg cm^−2 h^0.5
- Q24 ([3]; Ultrez Formulation (revised 50:40:10 gel, […] Ultrez, pH 5, 14:1)): 6128 μg cm^−2
- Flux ([3]; Ultrez Formulation): 248 μg cm^−2 h^−1
- reduction of release rate, 1:1 Gel versus 1:14 Gel ([3]; pH 7): 10.8 fold
- Virus particles per cell ([4]; each drug at its IC50, alone or both combined, No Drug 50): 0.25
- production of infectious virus reduced by ([4]; each drug at its IC50, individually or in combination): 99.5%

SMILES: Cc1cccc(Nc2ccncc2S(=O)(=O)NC(=O)NC(C)C)c1 [Torasemide]
- HSV yield [5]: HSV yield unaffected at 90 μg/ml

SMILES: CCCCNC(=O)NS(=O)(=O)c1ccc(C)cc1 [Tolbutamide]
- ICVT activity [1]: only ‘borderline’ CVI activity
- HSV yield reduced to zero ([5]; Solvent: PEG): HSV yield reduced to zero 300 μg/ml
- HSV yield reduced to zero ([5]; Solvent: PG): HSV yield reduced to zero 300 μg/ml

SMILES: NS(=O)(=O)c1cc2c(cc1Cl)NCNS2(=O)=O [Hydrochiorothiazide, Hydrochlorothiazide]
- ICVT activity [1]: only ‘borderline’ CVI activity
- HSV yield reduced to zero at ([5]; Solvent: NaOH 1% aqueous): HSV yield reduced to zero at 600 ug/ml

SMILES: C[C@@H]1O[C@@H](O[C@H]2C[C@@H](O)[C@]3(CO)[C@H]4[C@H](O)C[C@]5(C)[C@@H](C6=CC(=O)OC6)CC[C@]5(O)[C@@H]4CC[C@]3(O)C2)[C@H](O)[C@H](O)[C@H]1O [Strophanthin G]
- HSV yield [5]: HSV yield reduced Borderline

SMILES: CC(=O)Nc1nnc(S(N)(=O)=O)s1 [Acetazolamide]
- ICVT activity [1]: only ‘borderline’ CVI activity

SMILES: C[C@H]1O[C@@H](O[C@H]2[C@@H](O)C[C@H](O[C@H]3[C@@H](O)C[C@H](O[C@H]4CC[C@@]5(C)[C@H](CC[C@@H]6[C@@H]5CC[C@]5(C)[C@@H](C7=CC(=O)OC7)CC[C@]65O)C4)O[C@@H]3C)O[C@@H]2C)C[C@H](O)[C@@H]1O [Digitoxin]
- ID50 ([1]; Digoxin, Digitoxin from powder 250 μg per ml in 70% ethanol, IV Lanoxin in 10% ethanol, virus not named at this place): 30 ng per ml
- ICVT activity [1]: potent ICVT activity
- comparative ‘ICVT-ivities’ ([1]; saturated solutions in 90% ethanol compared with Lanoxin, virus not named at this place): more effective than Digoxin
- HSV yield [5]: HSV yield reduced

SMILES: CCCCNc1cc(C(=O)O)cc(S(N)(=O)=O)c1Oc1ccccc1 [Bumetanide]
- HSV yield [5]: HSV yield reduced Borderline
